{"source": "patent US6313171A", "about": "“Method for preventing or treating elevated blood lipid level-related diseases by administering cinnamic acid derivatives” (Korea Research Institute of Bioscience & Biotechnology, priority 1998, dated 2001)", "key": {"[1]": {"format": "in vivo, rabbit (New Zealand White)", "conditions": "rabbits, 1% cholesterol diet plus 0.1% derivative or 1 mg/kg Lovastatin, 8 weeks; for HDL/TC: Control 2.5 ± 0.4; for HDL-C (High density lipoprotein-cholesterol): Control 50 ± 11; for TG (Triglyceride): Control 170 ± 30; for TC (Total cholesterol): Control 1995 ± 472", "procedure": "30 three-month-old male New Zealand White rabbits (Yeonam Horticulture and Animal Husbandry College, Korea), each weighing about 2.5 to 2.6 kg, were raised under condition of temperature 20±2° C., relative humidity 55±5%, and photoperiod 12L/12D. The rabbits were divided into 5 groups and 5 groups of rabbits were fed with 5 different diets, i.e., RC4 diet (Oriental Yeast Co., Japan) containing 1% cholesterol (Control group); 1% cholesterol plus 1 mg/kg Lovastatin® (Merck, U.S.A.) (Lovastatin group); 1% cholesterol plus 0.1% 4-hydroxycinnamic acid (4-hydroxycinnamic acid group); 1% cholesterol plus 0.1% 3,4-dihydroxycinnamic acid (3,4-dihydroxycinnamic acid group); and 1% cholesterol plus 0.1% 3,4-dihydroxyhydrocinnamic acid (3,4-dihydroxyhydrocinnamic acid group), respectively. RC4 diet comprises 7.6% moisture, 22.8% crude protein, 2.8% crude fat, 8.8% crude ash, 14.4% crude cellulose and 43.6% soluble nitrogen-free substances. Cinnamic acid derivatives were purchased from Sigma Chemical Co. (St. Louis, Mo.).\nThe rabbits were fed for 8 weeks while being allowed free access to the diets and water.\nAfter eight weeks, the rabbits were anesthetized with an intramuscular injection of ketamine (50 mg/kg) in the femoral region and sacrificed. A blood sample was taken from the heart of each rabbit, allowed to stand for 2 hours and centrifuged at 3,000 rpm for 15 minutes and the supernatant serum was separated and stored in a freezer before use.\nThe chemical analysis of blood was carried out by employing a blood chemical analyzer (CIBA Corning 550 Express, USA) to determine the changes in GOT, GPT, total cholesterol, HDL-cholesterol and triglyceride levels."}, "ACAT": {"test_system": "ACAT", "assay": "ACAT assay, liver microsomes of the fed rabbits", "format": "biochemical, rabbit", "conditions": "rabbits fed 0.1% in 1% cholesterol diet; Control 0"}, "[2]": {"assay": "Acute oral toxicity in ICR mice", "format": "in vivo, mouse", "procedure": "12 seven-week-old, specific pathogen-free ICR […] mice, six female mice each weighing about 25 to 29 g and six male mice each weighing about 34 to 38 g, were kept under an environment of 22±1° C., 55±5% relative humidity and 12L/12D photoperiod. Fodder (Cheiljedang Co., mouse and rat fodder) and water were sterilized and fed to the mice.\n4-hydroxycinnamic acid purchased from Aldrich-Sigma Chemical Co. (St. Louis, Mo., U.S.A) was dissolved in 0.5% Tween 80 to a concentration of 100 mg/ml, and the solution was orally administered to the mice in an amount of 0.2 ml per 20 g of mouse body weight. […] Further, on the 10th day, the mice were sacrificed and the internal organs were visually examined."}, "[3]": {"assay": "Plasma cholesterol and triglyceride in two men with hyperlipidemia", "format": "in vivo, human", "conditions": "10 mg/kg daily oral capsule, 60 days", "procedure": "Two men in their mid-fifties, suffered by hyperlipidemia with blood cholesterol level ranging from 230 to 270 mg/dl and blood triglyceride level ranging from 200 to 220 mg/dl, were administered with a daily oral dose of 10 mg/kg of 4-hydroxycinnamic acid in the form of a capsule for 60 days. The plasma cholesterol and triglyceride contents were determined before and after the administration."}}, "data": [{"smiles": "O=C(O)/C=C/c1ccc(O)c(O)c1", "note": "[3,4-dihydroxycinnamic acid]", "values": [{"measurement": "HDL/TC", "setting": "[1]", "result": "3.4 ± 0.4", "unit": "%"}, {"measurement": "HDL-C (High density lipoprotein-cholesterol)", "setting": "[1]", "result": "53 ± 13", "unit": "mg/dL"}, {"measurement": "TG (Triglyceride)", "setting": "[1]", "result": "139 ± 46", "unit": "mg/dL"}, {"measurement": "TC (Total cholesterol)", "setting": "[1]", "result": "1559 ± 347", "unit": "mg/dL"}, {"measurement": "Inhibition on ACAT activity", "setting": "ACAT", "result": 33, "unit": "%"}]}, {"smiles": "O=C(O)CCc1ccc(O)c(O)c1", "note": "[3,4-dihydroxyhydrocinnamic acid]", "values": [{"measurement": "HDL/TC", "setting": "[1]", "result": "6.3 ± 1.6", "unit": "%"}, {"measurement": "HDL-C (High density lipoprotein-cholesterol)", "setting": "[1]", "result": "80 ± 23", "unit": "mg/dL"}, {"measurement": "TG (Triglyceride)", "setting": "[1]", "result": "108 ± 22", "unit": "mg/dL"}, {"measurement": "TC (Total cholesterol)", "setting": "[1]", "result": "1256 ± 150", "unit": "mg/dL"}, {"measurement": "Inhibition on ACAT activity", "setting": "ACAT", "result": 37, "unit": "%"}]}, {"smiles": "O=C(O)/C=C/c1ccc(O)cc1", "note": "[4-Hydroxycinnamic acid, 4-hydroxycinnamic acid]", "values": [{"measurement": "HDL/TC", "setting": "[1]", "result": "3.7 ± 1.3", "unit": "%"}, {"measurement": "HDL-C (High density lipoprotein-cholesterol)", "setting": "[1]", "result": "57 ± 28", "unit": "mg/dL"}, {"measurement": "TG (Triglyceride)", "setting": "[1]", "result": "167 ± 43", "unit": "mg/dL"}, {"measurement": "TC (Total cholesterol)", "setting": "[1]", "result": "1517 ± 417", "unit": "mg/dL"}, {"measurement": "Inhibition on ACAT activity", "setting": "ACAT", "result": 9, "unit": "%"}, {"measurement": "autopsy, internal organs", "setting": "[2]; oral 1,000 mg/kg, 10th day", "result": "had not developed any pathological abnormality"}, {"measurement": "weight changes", "setting": "[2]; oral 1,000 mg/kg, 10 day test period", "result": "no weight loss was observed"}, {"measurement": "survival", "setting": "[2]; oral 1,000 mg/kg, day 10", "result": "All the mice were alive"}, {"measurement": "toxicity", "setting": "[2]; single oral dose 1,000 mg/kg, mice, 10 days", "result": "showed no toxicity"}, {"measurement": "reduction of plasma cholesterol content", "setting": "[3]", "result": 25, "unit": "%"}, {"measurement": "reduction of plasma triglyceride content", "setting": "[3]", "result": 20, "unit": "%"}]}]}
